Data from patent US11760889B2, “Unsaturated fatty alcohol derivatives from natural oil metathesis” (priority 2012, dated 2023).

Assays:
[1] = Anionic emulsifier: emulsion stability testing of EW concentrate (modified ASTM E1116-98)
Description: Turbidity changes are noted and recorded.
A Mohr pipette is used to feed EW concentrate to each cylinder. Cylinders are stoppered and inverted ten times, then allowed to stand for 0.5, 1, and 24 h while recording stability at each time as type and % separation.
Spontaneity is recorded according to the following criteria: (1) poor: very thin emulsion cloud with major separation of oil droplets; (2) fair: thin emulsion cloud with minor separation of oil droplets; (3) good: thin emulsion cloud reaches the bottom of the cylinder without separation of any type; (4) excellent: thick emulsion cloud reaches the bottom of the cylinder without separation of any type.

[2] = Surfactant phase behavior study (cross-polarized microscopy); assay type: physicochemical; conditions: room temperature (20-22° C.)
Description: Phase behavior is observed using an Olympus BH-2 cross-polarized microscope at 100-400× and room temperature (20° C. to 22° C.). The inventive monounsaturated sulfates and ethoxylate sulfates are compared with their saturated analogs, and in some cases, commercial surfactants.
Samples are prepared by diluting the most concentrated product gradually with deionized water. When the surfactant concentration approaches a phase transition, the concentration is varied at 2-4% intervals to estimate the phase boundary. The actives level reported in Table 15 for each phase boundary is within ±5% of the true boundary.
Samples are loaded between a microscope slide and cover glass and are allowed to equilibrate before observation. Microscopic texture is analyzed and used to determine the phase. For some samples, an AR 2000 rheometer (TA Instruments) is used to measure viscosity at 25° C. to further verify phase behavior.

[3] = Water-soluble herbicide formulation testing (standard dilution test, emulsion stability); assay type: physicochemical; parameters: key to Emulsion stability, mL separation, 24 h: Tr = trace; conditions: 342 ppm water;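 note: diluted in a 50 mL Nessler cylinder held at 30 °C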
Description: Surfactant candidates for water soluble herbicide applications are examined as a replacement for the anionic, nonionic, or anionic/nonionic blend portion and compared to a known industry adjuvant standard for use in paraquat, a water soluble herbicide concentrate formulation. A standard dilution test is conducted whereby the concentrates are diluted in water to determine if solubility is complete.
The cylinder is stoppered and inverted ten times. Solubility is recorded as complete or incomplete. Cylinders are allowed to stand and the amount (in mL) and type of separation are recorded after 30 min., 1 h, 2 h, and 24 h. Results of the solubility testing appear in Table 3 below.
An eight to ten mole alkyl phenol ethoxylate surfactant (0.7 g) is added and vigorously mixed for 30 s. Test sample (0.7 g) is added and mixing resumes for 30 s.
Test sample (0.7 g) is added and vigorously mixed for 30 s. Sodium linear alkylbenzene sulfonate (“NaLAS,” 0.7 g) is added and mixing resumes for 30 s.

[4] = Adjuvant (anionic/nonionic) test sample

| Compound | % Separation, 1 h ([1]; 34 ppm water) [%] | % Separation, 24 h ([1]; 34 ppm water) [%] | % Separation, 1 h ([1]; 1000 ppm water) [%] | % Separation, 24 h ([1]; 1000 ppm water) [%] | Estimated Phase Region: Hexagonal [2] | Estimated Phase Region: Lamellar [2] | Estimated Phase Region: Solid/gum/paste [2] | Estimated Phase Region: Unknown [2] | Emulsion stability, mL separation, 1 h [3, 4] [mL] | Emulsion stability, mL separation, 24 h [3, 4] [mL] | Emulsion stability, mL separation, 1 h ([3]; Anionic test sample) [mL] | Emulsion stability, mL separation, 24 h ([3]; Anionic test sample) [mL] | Emulsion stability, mL separation, 1 h ([3]; Nonionic test sample) [mL] | Emulsion stability, mL separation, 24 h ([3]; Nonionic test sample) | Estimated Phase Region: Isotropic Clear [2] |
| --- | --- | --- | --- | --- | --- | --- | --- | --- | --- | --- | --- | --- | --- | --- | --- |
| 7 Mole Ethoxylated C10 Alcohol, Ammonium Sulfate [A10-14] | 3.5 | 4 | 3.5 | 4.1 | – | – | – | – | – | – | – | – | – | – | – |
| CCCCCCCCCCOS(=O)(=O)O.N [sat. analog of A10-2, reference compound] | – | – | – | – | 42-64 % actives | 64-80 % actives | 80-100 % actives | 0-42 % actives | – | – | – | – | – | – | – |
| 1 Mole Ethoxylated C10 Alcohol, Ammonium Sulfate [A10-5] | 3.8 | 4.3 | 2.8 | 3 | – | – | – | – | – | – | – | – | – | – | – |
| 7 Mole Ethoxylated C10 Alcohol, Sodium Sulfate [A10-15] | 3.5 | 3.9 | 3 | 4.1 | – | – | – | – | 0 | 0 | 0 | 0 | 0 | 0 mL | – |
| 15 Mole Ethoxylated C10 Alcohol, Ammonium Sulfate [A10-17] | 1.5 | 2.2 | 1.5 | 2 | – | – | – | – | – | – | – | – | – | – | – |
| 15 Mole Ethoxylated C12 Alcohol, Ammonium Sulfate [A12-17] | 4 | 3.8 | 3.5 | 4.2 | – | – | – | – | – | – | – | – | – | – | – |
| 1 Mole Ethoxylated C12 Alcohol, Ammonium Sulfate [A12-5] | 4 | 4.1 | 3 | 3.5 | – | – | – | – | – | – | – | – | – | – | – |
| CCCCCCCCCCOS(=O)(=O)[O-].[Na+] [sat. analog of A10-3, reference compound] | – | – | – | – | 41-59 % actives | – | 59-100 % actives | – | – | – | – | – | – | – | 0-41 % actives |
| 3 Mole Ethoxylated C12 Alcohol, Ammonium Sulfate [A12-8] | 3 | 4 | 3.7 | 3.9 | – | – | – | – | – | – | – | – | – | – | – |
| 15 Mole Ethoxylated C12 Alcohol, Sodium Sulfate [A12-18] | 3 | 4.3 | 2.5 | 3.9 | – | – | – | – | 0 | 0 | 0 | 0 | 0 | 0 mL | – |
| 5 Mole Ethoxylated C12 Alcohol, Sodium Sulfate [A12-12] | 4.1 | 4.5 | 3 | 3.8 | – | – | – | – | 0 | 0 | 0 | 0 | 0 | 0 mL | – |
| 7 Mole Ethoxylated C12 Alcohol, Sodium Sulfate [A12-15] | 3.5 | 3.9 | 3.5 | 4 | – | – | – | – | 0 | 0 | 0 | 0 | 0 | 0 mL | – |
| 5 Mole Ethoxylated C12 Alcohol, Ammonium Sulfate [A12-11] | 3.6 | 3.8 | 2.1 | 3 | – | – | – | – | – | – | – | – | – | – | – |
| 7 Mole Ethoxylated C12 Alcohol, Ammonium Sulfate [A12-14] | 3.9 | 4.1 | 2.8 | 3.5 | – | – | – | – | – | – | – | – | – | – | – |
| 5 Mole Ethoxylated C10 Alcohol, Ammonium Sulfate [A10-11] | 3.9 | 5 | 2.5 | 3.1 | – | – | – | – | – | – | – | – | – | – | – |
| 3 Mole Ethoxylated C10 Alcohol, Ammonium Sulfate [A10-8] | 3.5 | 3.9 | 3.5 | 3.5 | – | – | – | – | – | – | – | – | – | – | – |
| 1 Mole Ethoxylated C12 Alcohol, Sodium Sulfate [A12-6] | 4.3 | 5.2 | 2.7 | 3.7 | – | – | – | – | 0 | 0 | 0 | 0 | 0 | 0 mL | – |
| 1 Mole Ethoxylated C10 Alcohol, Sodium Sulfate [A10-6] | 4 | 4.9 | 3 | 3.2 | – | – | – | – | 0 | 0 | 0 | 0 | 0 | Tr | – |
| 15 Mole Ethoxylated C10 Alcohol, Sodium Sulfate [A10-18] | 2.5 | 2.8 | 4 | 4 | – | – | – | – | 0 | 0 | 0 | 0 | 0 | 0 mL | – |
| 5 Mole Ethoxylated C10 Alcohol, Sodium Sulfate [A10-12] | 3.6 | 4 | 3.4 | 4.3 | – | – | – | – | 0 | 0 | 0 | 0 | 0 | 0 mL | – |
| 3 Mole Ethoxylated C10 Alcohol, Sodium Sulfate [A10-9] | 4 | 3.6 | 3.5 | 3.9 | – | – | – | – | 0 | 0 | 0 | 0 | 0 | 0 mL | – |
